Assay results as given in the supplement of paper PMC13207355.
Where a name gives a salt, the structure may show the parent alone.

Experiments:
Conditions in all cases: exposure time: 72 h
FT3469 [1] = normal neural stem cell line; assay: phenotypic distance (Euclidean, principal components) from DMSO controls (arbitrary units); higher = stronger morphological change
E28 [2] = patient-derived glioblastoma stem cells of classical subtype; assay: as above
E34 [3] = patient-derived glioblastoma stem cells of proneural subtype; assay: as above
E31 [4] = patient-derived glioblastoma stem cells of proneural subtype; assay: as above
E21 [5] = patient-derived glioblastoma stem cells of mesenchymal subtype; assay: as above
E13 [6] = patient-derived glioblastoma stem cells of classical subtype; assay: as above
E57 [7] = patient-derived glioblastoma stem cells of mesenchymal subtype; assay: as above
FT3469 [8] = assay: surviving fraction (nuclei count normalised to DMSO); higher = more cells surviving (less toxic)
E28 [9] = assay: as above
E34 [10] = assay: as above
E31 [11] = assay: as above
E21 [12] = assay: as above
E13 [13] = assay: as above
E57 [14] = assay: as above
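Throughout, for phenotypic distance (Euclidean, principal components) from DMSO controls: cell Painting imaging in 384-well plates, CellProfiler features reduced to at least 20 principal components, Euclidean distance versus same-plate DMSO vehicle wells (0.1% v/v), median over six images per well.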
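Throughout, for surviving fraction (nuclei count normalised to DMSO): nuclei counted by high-content imaging of Hoechst-stained cells in laminin-coated 384-well plates, relative to 0.1% DMSO vehicle wells, with staurosporine as cell-death control.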

N=C(N)NCc1cccc(I)c1 [Iobenguane sulfate]
Conditions | phenotypic distance | surviving fraction
E13 [6], 4.1 nM | 0.573 | –
E13 [6], 12.3 nM | 0.965 | –
E13 [6], 37 nM | 0.696 | –
E13 [6], 111.1 nM | 0.835 | –
E13 [6], 333.3 nM | 0.643 | –
E13 [6], 1000 nM | 0.541 | –
E13 [6], 3000 nM | 0.796 | –
E13 [13], 4.1 nM | – | 0.873
E13 [13], 12.3 nM | – | 0.869
E13 [13], 37 nM | – | 0.916
E13 [13], 111.1 nM | – | 0.908
E13 [13], 333.3 nM | – | 0.989
E13 [13], 1000 nM | – | 0.922
E13 [13], 3000 nM | – | 1.08
E21 [5], 4.1 nM | 0.441 | –
E21 [5], 12.3 nM | 0.695 | –
E21 [5], 37 nM | 1.24 | –
E21 [5], 111.1 nM | 0.881 | –
E21 [5], 333.3 nM | 0.867 | –
E21 [5], 1000 nM | 0.81 | –
E21 [5], 3000 nM | 0.765 | –
E21 [12], 4.1 nM | – | 0.982
E21 [12], 12.3 nM | – | 0.855
E21 [12], 37 nM | – | 0.854
E21 [12], 111.1 nM | – | 0.921
E21 [12], 333.3 nM | – | 0.972
E21 [12], 1000 nM | – | 1.05
E21 [12], 3000 nM | – | 0.879
E28 [2], 4.1 nM | 0.591 | –
E28 [2], 12.3 nM | 0.866 | –
E28 [2], 37 nM | 0.64 | –
E28 [2], 111.1 nM | 0.721 | –
E28 [2], 333.3 nM | 0.496 | –
E28 [2], 1000 nM | 0.786 | –
E28 [2], 3000 nM | 0.814 | –
E28 [9], 4.1 nM | – | 0.875
E28 [9], 12.3 nM | – | 1.03
E28 [9], 37 nM | – | 0.94
E28 [9], 111.1 nM | – | 1.05
E28 [9], 333.3 nM | – | 1.04
E28 [9], 1000 nM | – | 1.05
E28 [9], 3000 nM | – | 0.936
E31 [4], 4.1 nM | 0.547 | –
E31 [4], 12.3 nM | 0.684 | –
E31 [4], 37 nM | 0.567 | –
E31 [4], 111.1 nM | 0.714 | –
E31 [4], 333.3 nM | 0.802 | –
E31 [4], 1000 nM | 0.469 | –
E31 [4], 3000 nM | 0.734 | –
E31 [11], 4.1 nM | – | 0.961
E31 [11], 12.3 nM | – | 0.997
E31 [11], 37 nM | – | 0.864
E31 [11], 111.1 nM | – | 1.15
E31 [11], 333.3 nM | – | 1.07
E31 [11], 1000 nM | – | 1.13
E31 [11], 3000 nM | – | 0.964
E34 [3], 4.1 nM | 0.386 | –
E34 [3], 12.3 nM | 0.879 | –
E34 [3], 37 nM | 0.823 | –
E34 [3], 111.1 nM | 0.771 | –
E34 [3], 333.3 nM | 1.44 | –
E34 [3], 1000 nM | 0.934 | –
E34 [3], 3000 nM | 0.966 | –
E34 [10], 4.1 nM | – | 0.935
E34 [10], 12.3 nM | – | 1.1
E34 [10], 37 nM | – | 1.02
E34 [10], 111.1 nM | – | 0.975
E34 [10], 333.3 nM | – | 1.08
E34 [10], 1000 nM | – | 1.1
E34 [10], 3000 nM | – | 1.25
E57 [7], 4.1 nM | 0.755 | –
E57 [7], 12.3 nM | 0.843 | –
E57 [7], 37 nM | 0.712 | –
E57 [7], 111.1 nM | 0.905 | –
E57 [7], 333.3 nM | 0.728 | –
E57 [7], 1000 nM | 0.452 | –
E57 [7], 3000 nM | 0.547 | –
E57 [14], 4.1 nM | – | 1.03
E57 [14], 12.3 nM | – | 0.978
E57 [14], 37 nM | – | 0.973
E57 [14], 111.1 nM | – | 1.03
E57 [14], 333.3 nM | – | 0.992
E57 [14], 1000 nM | – | 1.01
E57 [14], 3000 nM | – | 1.04
FT3469 [1], 4.1 nM | 0.354 | –
FT3469 [1], 12.3 nM | 3.38 | –
FT3469 [1], 37 nM | 0.885 | –
FT3469 [1], 111.1 nM | 1.06 | –
FT3469 [1], 333.3 nM | 1.08 | –
FT3469 [1], 1000 nM | 0.871 | –
FT3469 [1], 3000 nM | 0.634 | –
FT3469 [8], 4.1 nM | – | 1.08
FT3469 [8], 12.3 nM | – | 1.12
FT3469 [8], 37 nM | – | 0.963
FT3469 [8], 111.1 nM | – | 1.09
FT3469 [8], 333.3 nM | – | 1.1
FT3469 [8], 1000 nM | – | 0.904
FT3469 [8], 3000 nM | – | 1.14

O=c1c2ccccc2[se]n1-c1ccccc1 [Ebselen]
Conditions | phenotypic distance | surviving fraction
E13 [6], 4.11523 nM | 0.891 | –
E13 [6], 12.34567901 nM | 0.779 | –
E13 [6], 37.037 nM | 0.477 | –
E13 [6], 111.1111111 nM | 0.532 | –
E13 [6], 333.333 nM | 0.51 | –
E13 [6], 1000 nM | 0.854 | –
E13 [6], 3000 nM | 1.59 | –
E13 [13], 4.11523 nM | – | 1.18
E13 [13], 12.34567901 nM | – | 1.04
E13 [13], 37.037 nM | – | 1.05
E13 [13], 111.1111111 nM | – | 1.07
E13 [13], 333.333 nM | – | 1.16
E13 [13], 1000 nM | – | 1.11
E13 [13], 3000 nM | – | 0.579
E21 [5], 4.11523 nM | 0.63 | –
E21 [5], 12.34567901 nM | 1.29 | –
E21 [5], 37.037 nM | 0.667 | –
E21 [5], 111.1111111 nM | 1.02 | –
E21 [5], 333.333 nM | 0.791 | –
E21 [5], 1000 nM | 0.556 | –
E21 [5], 3000 nM | 1.89 | –
E21 [12], 4.11523 nM | – | 1.06
E21 [12], 12.34567901 nM | – | 1.15
E21 [12], 37.037 nM | – | 1.11
E21 [12], 111.1111111 nM | – | 1.08
E21 [12], 333.333 nM | – | 1.1
E21 [12], 1000 nM | – | 1.14
E21 [12], 3000 nM | – | 0.582
E28 [2], 4.11523 nM | 0.754 | –
E28 [2], 12.34567901 nM | 1.01 | –
E28 [2], 37.037 nM | 0.601 | –
E28 [2], 111.1111111 nM | 0.529 | –
E28 [2], 333.333 nM | 0.764 | –
E28 [2], 1000 nM | 0.79 | –
E28 [2], 3000 nM | 2.56 | –
E28 [9], 4.11523 nM | – | 0.974
E28 [9], 12.34567901 nM | – | 1.18
E28 [9], 37.037 nM | – | 1.14
E28 [9], 111.1111111 nM | – | 1.12
E28 [9], 333.333 nM | – | 1.15
E28 [9], 1000 nM | – | 1.1
E28 [9], 3000 nM | – | 0.0788
E31 [4], 4.11523 nM | 0.71 | –
E31 [4], 12.34567901 nM | 0.778 | –
E31 [4], 37.037 nM | 0.875 | –
E31 [4], 111.1111111 nM | 0.398 | –
E31 [4], 333.333 nM | 0.33 | –
E31 [4], 1000 nM | 0.763 | –
E31 [4], 3000 nM | 3.3 | –
E31 [11], 4.11523 nM | – | 0.993
E31 [11], 12.34567901 nM | – | 0.922
E31 [11], 37.037 nM | – | 1.2
E31 [11], 111.1111111 nM | – | 1.12
E31 [11], 333.333 nM | – | 1.13
E31 [11], 1000 nM | – | 0.905
E31 [11], 3000 nM | – | 0.127
E34 [3], 4.11523 nM | 0.415 | –
E34 [3], 12.34567901 nM | 0.549 | –
E34 [3], 37.037 nM | 0.806 | –
E34 [3], 111.1111111 nM | 0.859 | –
E34 [3], 333.333 nM | 0.532 | –
E34 [3], 1000 nM | 1.03 | –
E34 [3], 3000 nM | 1.91 | –
E34 [10], 4.11523 nM | – | 0.901
E34 [10], 12.34567901 nM | – | 1.1
E34 [10], 37.037 nM | – | 0.955
E34 [10], 111.1111111 nM | – | 1
E34 [10], 333.333 nM | – | 1.04
E34 [10], 1000 nM | – | 1.05
E34 [10], 3000 nM | – | 0.512
E57 [7], 4.11523 nM | 0.316 | –
E57 [7], 12.34567901 nM | 0.564 | –
E57 [7], 37.037 nM | 0.5 | –
E57 [7], 111.1111111 nM | 0.407 | –
E57 [7], 333.333 nM | 0.482 | –
E57 [7], 1000 nM | 1 | –
E57 [7], 3000 nM | 4.42 | –
E57 [14], 4.11523 nM | – | 1.04
E57 [14], 12.34567901 nM | – | 0.962
E57 [14], 37.037 nM | – | 1.01
E57 [14], 111.1111111 nM | – | 1.05
E57 [14], 333.333 nM | – | 0.995
E57 [14], 1000 nM | – | 1.04
E57 [14], 3000 nM | – | 0.343
FT3469 [1], 4.11523 nM | 0.678 | –
FT3469 [1], 12.34567901 nM | 0.843 | –
FT3469 [1], 37.037 nM | 0.785 | –
FT3469 [1], 111.1111111 nM | 0.587 | –
FT3469 [1], 333.333 nM | 1.06 | –
FT3469 [1], 1000 nM | 0.639 | –
FT3469 [1], 3000 nM | 4.47 | –
FT3469 [8], 4.11523 nM | – | 1.14
FT3469 [8], 12.34567901 nM | – | 1.14
FT3469 [8], 37.037 nM | – | 1.11
FT3469 [8], 111.1111111 nM | – | 1.15
FT3469 [8], 333.333 nM | – | 1.32
FT3469 [8], 1000 nM | – | 0.997
FT3469 [8], 3000 nM | – | 0.189
